Measured values taken from PubChem BioAssay (NCI).
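Compound exposure: 48 hours, 5 concentrations, 96-well plates. TGI is the concentration that stops growth completely.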

What was measured:
Assay in all cases: NCI tumour cell line growth inhibition, 48 h
SNB-19 CNS = system: SNB-19 CNS
M14 melanoma = system: M14 melanoma
BT-549 breast = system: BT-549 breast
OVCAR-5 ovarian = system: OVCAR-5 ovarian
MOLT-4 leukemia = system: MOLT-4 leukemia
OVCAR-8 ovarian = system: OVCAR-8 ovarian
SK-MEL-5 melanoma = system: SK-MEL-5 melanoma
KM12 colon = system: KM12 colon
MDA-MB-231 breast = system: MDA-MB-231 breast
NCI-H460 lung = system: NCI-H460 lung
HOP-62 NSCLC = system: HOP-62 NSCLC
NCI/ADR-RES ovarian = system: NCI/ADR-RES ovarian
PC-3 prostate = system: PC-3 prostate
SN12C renal = system: SN12C renal
NCI-H522 lung = system: NCI-H522 lung
HL-60(TB) leukemia = system: HL-60(TB) leukemia
MALME-3M melanoma = system: MALME-3M melanoma
RPMI-8226 leukemia = system: RPMI-8226 leukemia
HS 578T breast = system: HS 578T breast

Row | Structure (SMILES) | TGI (SNB-19 CNS) [µM] | TGI (M14 melanoma) [µM] | TGI (BT-549 breast) [µM] | TGI (OVCAR-5 ovarian) [µM] | TGI (MOLT-4 leukemia) [µM] | TGI (OVCAR-8 ovarian) [µM] | TGI (SK-MEL-5 melanoma) [µM] | TGI (KM12 colon) [µM] | TGI (MDA-MB-231 breast) [µM] | TGI (NCI-H460 lung) [µM] | TGI (HOP-62 NSCLC) [µM] | TGI (NCI/ADR-RES ovarian) [µM] | TGI (PC-3 prostate) [µM] | TGI (SN12C renal) [µM] | TGI (NCI-H522 lung) [µM] | TGI (HL-60(TB) leukemia) [µM] | TGI (MALME-3M melanoma) [µM] | TGI (RPMI-8226 leukemia) [µM] | TGI (HS 578T breast) [µM]
1 | SCc1ccc(CS)s1 | > 100 | > 100 | > 100 | > 100 | > 100 | > 100 | > 100 | > 100 | > 100 | > 100 | > 100 | > 100 | > 100 | > 100 | > 100 | > 100 |  |  | 
2 | COc1ccc(/C=C/C(=O)CC(=O)/C=C/c2ccc(OC)cc2)cc1 | > 100 | > 100 |  | > 100 | 70.8 | 52.7 | > 100 | > 100 | > 100 | > 100 | > 100 | > 100 | > 100 | > 100 | 67 | 64.5 | > 100 | > 100 | 99.8
3 | CCN(CC)CCCNc1nc(=O)[nH]c(C)c1C(=O)Nc1ccc2c(c1)c1ccccc1n2CC | > 100 | > 100 |  | > 100 | > 100 | > 100 | > 100 | > 100 | > 100 |  | > 100 | > 100 | > 100 | > 100 | > 100 | > 100 | > 100 | > 100 | 
4 | COC(=O)[C@@H](Cc1ccccc1)N1O[C@]12CCCC[C@@H]2NC(=O)OC(C)(C)C (stereo partly drawn) | > 100 | 50.9 | 34.8 | 71.7 | > 100 |  | 35.8 | > 100 | 42.4 | 90.6 | 38.2 | 52.4 | 84.2 | > 100 | 30.4 |  | 56 | > 100 | 55.8
5 | N#Cc1nc(-c2ccccn2)oc1N | > 100 |  | > 100 | > 100 | > 100 |  | > 100 | > 100 | > 100 | > 100 | > 100 |  | > 100 | > 100 | > 100 | > 100 | > 100 | > 100 | > 100
6 | COC(=O)c1ccccc1/C=C1\Cc2c(C)cc(C)cc2C1=O | > 100 | > 100 | > 100 |  | > 100 | > 100 | > 100 | > 100 | > 100 | > 100 | > 100 |  | > 100 | > 100 | > 100 | > 100 | > 100 | > 100 | > 100
7 | COc1cc(S(=O)(=O)Nc2ccc(-c3csc(N4C(=O)C(Cl)C4c4ccccc4)n3)cc2)ccc1Cl (stereo not drawn) | > 100 | 59.2 | 83.2 | > 100 | > 100 | 39.9 | 88.1 | > 100 |  | > 100 | > 100 | > 100 | > 100 | 94 | 33.9 | > 100 | 49 | > 100 | > 100
8 | Fc1cccc(Cl)c1C1SCc2nc3cc4ccccc4cc3n21 (stereo not drawn) | > 100 | > 100 | > 100 | > 100 | > 100 | > 100 |  | > 100 | > 100 |  | > 100 | > 100 | > 100 | > 100 |  |  | > 100 | > 100 | > 100
9 | CC1(S)CC2C(CC1Sc1ccccc1)C2(C)C (stereo not drawn) |  | > 100 |  | > 100 | > 100 | > 100 | > 100 | > 100 |  | > 100 |  |  |  | > 100 |  | > 100 | > 100 | > 100 | 
10 | O=c1[nH]nc(Cn2c3ccc(Br)cc3c3nc4ccccc4nc32)n1C1CCCCC1 | > 100 | > 100 | > 100 | > 100 | > 100 | > 100 | > 100 | > 100 | > 100 | > 100 | 52.8 | > 100 | 59.8 | > 100 |  |  |  | 77.6 | 
11 | CN(C)S(=O)(=O)n1cnc(CO)c1 | > 100 | > 100 | > 100 | > 100 | > 100 |  | > 100 | > 100 | > 100 | > 100 | > 100 | > 100 | > 100 | > 100 | > 100 |  | > 100 | > 100 | 
12 | CCN(CC)c1ccc2cc(-c3nnc(-c4ccccc4O)o3)c(=O)oc2c1 | 26.9 | 24.3 | 24.4 | 35 | 25.9 | 11.9 | 25.2 | 37.8 |  | 27.9 | 18.5 | 44.1 | 22.4 |  | 25.5 | 22.7 | 33.6 | > 100 | 57.6
13 | COc1cc([C@@]23OC[C@@H]4[C@@H](OC[C@@H]42)c2cc4c(cc23)OCO4)cc(OC)c1OC | > 100 | > 100 | > 66.4 | > 100 | > 100 | > 100 |  | > 100 | < 0.01 |  | > 100 | < 0.01 | > 100 |  | < 0.01 |  | > 100 | > 77.1 | 10.5
14 | Cc1c(N/C=C(\C#N)C(=O)c2ccc(Cl)cc2)c(=O)n(-c2ccccc2)n1C | > 100 | > 100 | > 100 | > 100 |  | > 100 | > 100 | > 100 | > 100 | > 100 |  | > 100 | > 100 | > 100 | > 100 | > 100 | > 100 | > 100 | 
